Laboratory results from patent US20200071310A1, “N-ARYL PYRAZOLES AS NRF2 REGULATORS” (GLAXOSMITHKLINE INTELLECTUAL PROPERTY DEVELOPMENT LIMITED, priority 2016, published 2020).

Biological target: T1, full length Keap1 protein / full length NRF2 protein (Homo sapiens, UniProt Q14145)
T1 construct: full length NRF2 protein and full length Keap1 protein (Keap1 exists a dimer) are used; His
Test: NRF2-Keap1 TR-FRET Low Protein Assay
Type: binding
Description: In the NRF2-Keap1 TR-FRET (time-resolved fluorescence resonance energy transfer) low protein assay, full length NRF2 protein and full length Keap1 protein (Keap1 exists a dimer) are used. The assay detects a compound's ability to displace the binding of Keap1 FlagHis with biotinylated Avi-NRF2 protein. Biotin-NRF2 binds to streptavidin-europium (a component of the detection mix) and Keap1 FlagHis is recognized by anti-Flag APC (allophycocyanin) antibody (also a component of the detection mix). If binding occurs between the two proteins, there will be an energy transfer from the Eu+3 (donor) at 615 nm to the APC (acceptor) at 665 nm. A potential NRF2 inhibitor will cause a reduction in the TR-FRET signal by interfering with the binding of Keap1 to NRF2.
Ten nanoliters of 100× compound dose response curves (serial 3-fold dilutions) in DMSO were stamped using an Echo liquid handling system (Labcyte) into 384-well, low volume, black assay plates (Greiner, #784076), with DMSO in columns 6 and 18. An additional 90 nl DMSO was added to each well, to bring the total volume to 100 nl per well. The top concentration of compound was located in columns 1 and 13, with the serial dilutions going across the row. All reagents were diluted in assay buffer (50 mM Tris, pH 8.0, 5 mM MgCl2, 100 mM NaCl, 0.005% BSA, 1 mM DTT, and 2 mM CHAPS. The BSA, DTT, and CHAPS were added to the assay buffer on the day of assay. Using a Multidrop Combi (Thermo Electron Corporation) equipped with a metal tip dispenser, 5 ul of 1.25 nM Keap1 FlagHis protein was added to all wells of the compound plate, with the exception of the wells in column 18. Wells in column 18 received 5 ul of assay buffer instead. Plates were centrifuged at 500 rpm for 1 minute, covered with a plate lid, and incubated at 37° C. for 2.25 hours. Plates were then removed from the incubator and allowed to cool to RT for 15 minutes. Five microliters of 2.5 nM biotin-NRF2 protein was then added to all wells of the plates and the plates were spun at 500 rpm for 1 minute, followed by incubating at 4° C. for 1.25 hours. The plates were then allowed to warm to RT for 15 minutes, followed by the addition of 10 ul of detection mix (1 nM Streptavidin Eu+W1024 and 5 ug/ml mouse anti-DYKDDDDK IgG conjugated to SureLight APC antibody; both from Columbia Biosciences) to all wells. Plates were spun at 500 rpm for 1 minute, incubated for 1 hour at RT, and read on an Envision plate reader using a 320 nm excitation filter and 615 nm and 665 nm emission filters. Compound response (% inhibition) and potency (pIC50) were calculated based on the ratio of the two emissions (665 nm/615 nm) and then the transformed data was normalized against controls in the assay (control 1=1% DMSO in the presence of NRF2 and Keap1 protein and control 2=1% DMSO in the presence of only the NRF2 protein). Data analysis was handled using the software package Abase XE (Surrey, United Kingdom). The % inhibition values were calculated from the ratio (transformed) data by the equation:
100−(100*(compound response−average control 2)/(average control 1−average control2)).
For calculation of pIC50s, Abase XE used a four parameter equation.
IC50s<10 nM (+++++), IC50s 10-100 nM (++++), IC50s 100 nM-1 uM (+++), IC50s 1-10 uM (++). and IC50s 10 uM-100 uM (+), IC50s>100 uM (−), or were not determined (ND).

T1 sequence (Q14145 whole entry): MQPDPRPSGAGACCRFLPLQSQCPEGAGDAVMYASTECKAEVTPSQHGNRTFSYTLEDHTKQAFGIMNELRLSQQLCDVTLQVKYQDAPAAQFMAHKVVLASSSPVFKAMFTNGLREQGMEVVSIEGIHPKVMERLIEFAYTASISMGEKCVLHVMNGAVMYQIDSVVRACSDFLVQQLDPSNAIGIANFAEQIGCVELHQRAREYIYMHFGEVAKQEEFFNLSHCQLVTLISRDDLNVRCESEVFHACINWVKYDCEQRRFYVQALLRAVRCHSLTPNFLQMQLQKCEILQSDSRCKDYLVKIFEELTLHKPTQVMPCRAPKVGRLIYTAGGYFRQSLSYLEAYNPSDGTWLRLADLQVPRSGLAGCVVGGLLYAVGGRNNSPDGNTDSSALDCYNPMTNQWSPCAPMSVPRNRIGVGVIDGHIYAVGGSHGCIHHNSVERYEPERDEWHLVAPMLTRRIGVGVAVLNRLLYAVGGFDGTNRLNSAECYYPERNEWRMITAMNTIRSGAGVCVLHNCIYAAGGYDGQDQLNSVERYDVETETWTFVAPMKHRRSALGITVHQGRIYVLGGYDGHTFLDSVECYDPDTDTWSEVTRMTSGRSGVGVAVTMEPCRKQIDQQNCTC

SMILES | EC50 [µM]
CC[C@H]1Cc2ccc(Br)cc2S(=O)(=O)N(Cc2cccc(-n3ncc(C(=O)O)c3[C@@H]3C[C@H]3c3cn(C)nn3)c2)C1 [Example 22, 1-(3-(((S)-8-bromo-4-ethyl-1,1-dioxido-4,5-dihydrobenzo[f][1,2]thiazepin-2(3H)-yl)methyl)phenyl)-5-((1R,2R)-2-(1-methyl-1H-1,2,3-triazol-4-yl)cyclopropyl)-1H-pyrazole-4-carboxylic acid] | < 0.01
CC[C@@H]1CN(Cc2cc(-n3ncc(C(=O)O)c3C3C[C@H]3c3cn(C)nn3)ccc2C)S(=O)(=O)c2ccccc2O1 (stereo partly shown) [Example 25] | 0.01 to 0.1
C[C@H]1Cc2ccc(C(F)(F)F)cc2S(=O)(=O)N([C@H]2CCc3c2cccc3-n2ncc(C(=O)O)c2[C@@H]2C[C@H]2c2cn(C)nn2)C1 [Example 26a, 1-((S)-1-((S)-4-Methyl-1,1-dioxido-8-(trifluoromethyl)-4,5-dihydrobenzo[f][1,2]thiazepin-2(3H)-yl)-2,3-dihydro-1H-inden-4-yl)-5-((1R,2R)-2-(1-methyl-1H-1,2,3-triazol-4-yl)cyclopropyl)-1H-pyrazole-4-carboxylic acid] | 0.1 to 1
COc1ccccc1S(=O)(=O)N(C)C1CCc2ccc(-n3ncc(C(=O)O)c3[C@@H]3C[C@H]3c3cn(C)nn3)cc21 (stereo partly drawn) [Example 27, 1-(3-(2-methoxy-N-methylphenylsulfonamido)-2,3-dihydro-1H-inden-5-yl)-5-((1R,2R)-2-(1-methyl-1H-1,2,3-triazol-4-yl)cyclopropyl)-1H-pyrazole-4-carboxylic acid] | 10 to 100
CC[C@@H]1CN(Cc2cc(-n3ncc(C(=O)O)c3[C@@H]3C[C@H]3c3cn(C)nn3)ccc2C)Cc2ccccc2O1 [Example 28] | 1 to 10
CC[C@@H]1CN(Cc2cccc(-n3ncc(C(=O)O)c3[C@@H]3C[C@H]3c3cn(CC(F)(F)F)nn3)c2)S(=O)(=O)c2ccccc2O1 [Example 29] | 0.01 to 0.1
C[C@H]1Cc2cc(C(F)(F)F)ccc2S(=O)(=O)N(Cc2cccc(-n3ncc(C(=O)O)c3[C@@H]3C[C@H]3c3cnn(C)c3)c2)C1 [Example 30, 1-(3-(((S)-4-Methyl-1,1-dioxido-7-(trifluoromethyl)-4,5-dihydrobenzo[f][1,2]thiazepin-2(3H)-yl)methyl)phenyl)-5-(trans-2-(1-methyl-1H-pyrazol-4-yl)cyclopropyl)-1H-pyrazole-4-carboxylic acid] | 0.1 to 1
CC[C@@H]1CN(Cc2cccc(-n3ncc(C(=O)O)c3[C@@H]3C[C@H]3c3cnn(C)c3)c2)S(=O)(=O)c2ccccc2O1 [Example 31, 1-(3-(((R)-4-ethyl-1,1-dioxido-3,4-dihydro-2H-benzo[b][1,4,5]oxathiazepin-2-yl)methyl)-phenyl)-5-(trans-2-(1-methyl-1H-pyrazol-4-yl)cyclopropyl)-1H-pyrazole-4-carboxylic acid] | 1 to 10
C[C@H]1Cc2ccccc2S(=O)(=O)N(Cc2cccc(-n3ncc(C(=O)O)c3[C@@H]3C[C@H]3c3cnn(C)c3)c2)C1 [Example 32, 1-(3-(((S)-4-methyl-1,1-dioxido-4,5-dihydrobenzo[f][1,2]thiazepin-2(3H)-yl)methyl)-phenyl)-5-(trans-2-(1-methyl-1H-pyrazol-4-yl)cyclopropyl)-1H-pyrazole-4-carboxylic acid] | 1 to 10
C[C@@H]1Cc2cc(C(F)(F)F)ccc2S(=O)(=O)N(Cc2cccc(-n3ncc(C(=O)O)c3[C@@H]3C[C@H]3c3cnn(C)c3)c2)C1 [Example 33, 1-(3-(((R)-4-methyl-1,1-dioxido-7-(trifluoromethyl)-4,5-dihydro-benzo[f][1,2]thiazepin-2(3H)-yl)methyl)phenyl)-5-(trans-2-(1-methyl-1H-pyrazol-4-yl)cyclopropyl)-1H-pyrazole-4-carboxylic acid] | 10 to 100
